Measured values reported in PubChem BioAssay (NCI).
Where “and” joins values, the source holds several entries; their conditions need not be identical. Equal values may be shown once.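 Following 48 hours of exposure in 96-well plates, responses at five concentrations were used to interpolate endpoints linearly. GI50 = concentration required for 50% inhibition of growth. TGI marks complete inhibition of growth.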

What was measured:
Experiment in all cases: growth of human tumour cells (NCI), 48 h
DU-145 prostate = tested on: DU-145 prostate
HOP-62 NSCLC = tested on: HOP-62 NSCLC
HOP-92 NSCLC = tested on: HOP-92 NSCLC
IGROV1 ovarian = tested on: IGROV1 ovarian
OVCAR-3 ovarian = tested on: OVCAR-3 ovarian
SF-539 CNS = tested on: SF-539 CNS
SN12C renal = tested on: SN12C renal
SNB-19 CNS = tested on: SNB-19 CNS
SNB-75 CNS = tested on: SNB-75 CNS
SW-620 colon = tested on: SW-620 colon

Structure (SMILES)	TGI (DU-145 prostate) [µM]	TGI (HOP-62 NSCLC) [µM]	TGI (HOP-92 NSCLC) [µM]	TGI (IGROV1 ovarian) [µM]	TGI (OVCAR-3 ovarian) [µM]	TGI (SF-539 CNS) [µM]	TGI (SN12C renal) [µM]	TGI (SNB-19 CNS) [µM]	TGI (SNB-75 CNS) [µM]	TGI (SW-620 colon) [µM]	GI50 (HOP-92 NSCLC)	GI50 (IGROV1 ovarian)	GI50 (OVCAR-3 ovarian)	GI50 (SF-539 CNS)	GI50 (SN12C renal)	GI50 (SW-620 colon)
CCOC(=O)c1cnc(-n2[nH]c(C)c(CCO)c2=O)[nH]c1=O	> 100	> 100	> 100	> 100	> 100	> 100	> 100	> 100	> 100	> 100	–	–	–	–	–	–
C=C(C)[C@@]1(O)O[C@H]2C[C@@]3(C)OC(=CC3=O)/C(C)=C\[C@@H]3OC(=O)[C@@]1(C)[C@H]32	> 100	> 100	41.3	24.9	34.2	56	34.9	> 100	68.3	19.5	–	–	–	–	–	–
O=C1c2ccccc2C2CNC1(O)c1ccccc12 (stereo not given)	> 100	> 100	> 100	> 100	> 100	> 100	> 100	> 100	> 100	> 100	–	–	–	–	–	–
O=C1Oc2ccccc2C(=O)/C1=C/N1C(=O)N/C(=C\c2ccccc2O)C1=O	> 100	> 100	> 91	> 100	> 100	> 100	> 100	> 100	> 100	> 100	–	–	–	–	–	–
O=C(CSCC(=O)N/N=C/c1cc(I)cc(I)c1O)N/N=C/c1cc(I)cc(I)c1O	> 100	33.4	> 100	25.3	> 100	38.1	> 100	36.6	19.5	> 100	–	–	–	–	–	–
Cc1[nH]c2ncn(/N=C/c3ccccc3O)c(=N)c2c1Cc1ccccc1	> 100	> 100	> 100	> 100	71.8	> 100	> 100	> 100	> 100	> 100	–	–	–	–	–	–
O=c1[nH]c(=O)n(C2CC(O)C(CO)O2)cc1I (stereo not given)	> 100	> 100	> 100	> 100	> 100	> 100	> 100	> 100	> 100	> 100	–	–	–	–	–	–
C=C(C)C(=O)CC[C@@H](C)[C@H]1[C@@H](OC2OC(CO)C(O)C(O)C2O)C[C@@]2(C)[C@@H]3C[C@H](O)C4C(C)(C)[C@@H](OC5OC(CO)C(O)C(O)C5O)CC[C@@]45C[C@@]35CC[C@]12C (stereo not given in full)	> 100	> 100	> 100	> 100	> 100	> 100	> 100	> 100	> 100	> 100	–	–	–	–	–	–
O=C(Cc1ccccc1)NCCc1ccc(O)c(O)c1	> 100	> 100	> 100	> 100	> 100	> 100	> 100	> 100	> 100	> 100	–	–	–	–	–	–
c1csc(-c2ccc(-c3ccc(-c4ccc(-c5cccs5)s4)s3)s2)c1	> 100	> 100	> 100	> 100	> 100	> 100	> 100	–	> 100	> 100	–	–	–	–	–	–
Nc1nc(Cl)cc(NCC2(O)CC(CO)C2)n1 (stereo not given)	> 100	> 100	> 100	> 100	> 100	> 100	> 100	> 100	> 100	> 100	–	–	–	–	–	–
Cc1ccc(C)n1-c1ccccc1C1SCCCS1	> 100	> 100	> 100	> 100	> 100	> 100	> 100	> 100	> 100	> 100	–	–	–	–	–	–
COC(=O)c1c2c(cc3c1CC1(Cc4ccccc4C1=O)C3)CCC2 (stereo not given)	> 100	> 100	> 100	> 100	> 100	> 100	> 100	> 100	> 100	> 100	–	–	–	–	–	–
O=c1cnn(C/C=C\CO)c(=O)[nH]1	> 100	> 100	> 100	> 100	> 100	> 100	> 100	> 100	> 100	> 100	–	–	–	–	–	–
O=C1NC(N/N=C\C(O)C(O)C(O)CO)=N/C1=C/c1ccccc1 (stereo not given)	> 100	> 100	> 100	> 100	> 100	> 100	> 100	> 100	> 100	> 100	> 100 µM and 45 µM	> 100 µM and 43.3 µM	> 100 µM and 47.6 µM	> 100 µM and 34.3 µM	> 100 µM and 46.8 µM	> 100 µM and 34 µM
